Laboratory results from patent US6262084A, “Compounds that inhibit the binding of integrins to their receptors” (Texas Biotechnology Corporation, priority 1999, dated 2001).

Molecular target: T1, α4β1 integrin (Homo sapiens, UniProt P05556+P13612)
T1 construct: Ramos cells fluorescently labeled with calcein; endogenous in cells; host or cells: Ramos cells
Assay: Inhibition of adhesion of calcein-labeled Ramos cells to CS1 (fibronectin) peptide-conjugated ovalbumin
Type: cell-based
Details: Table 1; for inhibition at 100 µM: Ramos, compound at a concentration of 100 μM, read-out: % A (percent inhibition of cell adhesion); for IC50: dose required to give 50% inhibition, Ramos cell adhesion to CS1-ovalbumin, 30 minutes at 37° C
Experimental: The ability of compounds of the present invention to inhibit binding is described in detail hereinafter in the Examples by a procedure in which a 26-amino acid peptide containing the CS1 sequence of fibroncctin with an N-terminal Cys was coupled to maleimide activated ovalbumin. Ovalbumin and CS1 conjugated ovalbumin were coated onto 96-well polystyrene plates at 5 μg/ml in TBS (50 mM Tris, pH 7.5; 150 mM NaCl) at 4° C. for 16 hours. The plates were washed three times with TBS and blocked with TBS containing 3% BSA at room temperature for 4 hours. Blocked plates were washed three times in binding buffer (TBS; 1 mM MgCl2; 1 mM CaCl2; 1 mM MnCl2) prior to assay. Ramos cells fluorescently labeled with calcein AMC-3099 were resuspended in binding buffer (10^7 cells/ml) and diluted 1:2 with same buffer with or without compound. The cells were added immediately to the wells (2.5×10^5 cells/well) and incubated for 30 minutes at 37° C. Following three washes with binding buffer, adherent cells were lysed and quantitated using a fluorometer.
IC50 is defined as the dose required to give 50% inhibition. The lower the IC50 value and the greater the percentage of inhibition, the more efficient the compound is at prevention of cell adhesion. A stands for inhibition in Table 1, and the percent inhibition indicates the inhibition of cell adhesion when compound is included in the assay at a concentration of 100 μM.

T1 sequence (P13612 34-1032): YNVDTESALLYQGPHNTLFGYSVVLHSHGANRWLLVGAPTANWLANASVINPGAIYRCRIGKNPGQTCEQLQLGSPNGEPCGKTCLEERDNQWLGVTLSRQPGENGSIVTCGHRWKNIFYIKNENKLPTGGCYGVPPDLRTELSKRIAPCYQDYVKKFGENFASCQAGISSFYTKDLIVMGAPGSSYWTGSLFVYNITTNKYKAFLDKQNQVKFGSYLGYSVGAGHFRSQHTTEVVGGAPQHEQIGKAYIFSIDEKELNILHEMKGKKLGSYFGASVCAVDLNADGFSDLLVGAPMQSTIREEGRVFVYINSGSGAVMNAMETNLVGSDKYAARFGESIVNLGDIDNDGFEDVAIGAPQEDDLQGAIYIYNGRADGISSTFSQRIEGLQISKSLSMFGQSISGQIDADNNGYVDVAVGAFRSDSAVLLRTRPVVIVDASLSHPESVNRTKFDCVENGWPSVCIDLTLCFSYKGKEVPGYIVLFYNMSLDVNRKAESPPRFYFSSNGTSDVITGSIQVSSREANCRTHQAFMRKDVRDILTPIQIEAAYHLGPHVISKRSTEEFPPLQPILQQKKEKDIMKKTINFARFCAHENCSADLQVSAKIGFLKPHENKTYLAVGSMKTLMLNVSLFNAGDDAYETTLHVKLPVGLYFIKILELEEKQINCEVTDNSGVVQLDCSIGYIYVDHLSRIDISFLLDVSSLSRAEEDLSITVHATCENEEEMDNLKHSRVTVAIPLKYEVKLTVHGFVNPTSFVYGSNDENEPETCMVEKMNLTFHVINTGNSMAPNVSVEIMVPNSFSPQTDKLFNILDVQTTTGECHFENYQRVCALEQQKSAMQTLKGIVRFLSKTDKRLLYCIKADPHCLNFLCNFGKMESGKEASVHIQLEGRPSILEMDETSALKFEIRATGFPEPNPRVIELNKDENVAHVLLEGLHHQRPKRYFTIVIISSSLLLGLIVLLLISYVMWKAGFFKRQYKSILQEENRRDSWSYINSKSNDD
T1 sequence (P05556 21-798): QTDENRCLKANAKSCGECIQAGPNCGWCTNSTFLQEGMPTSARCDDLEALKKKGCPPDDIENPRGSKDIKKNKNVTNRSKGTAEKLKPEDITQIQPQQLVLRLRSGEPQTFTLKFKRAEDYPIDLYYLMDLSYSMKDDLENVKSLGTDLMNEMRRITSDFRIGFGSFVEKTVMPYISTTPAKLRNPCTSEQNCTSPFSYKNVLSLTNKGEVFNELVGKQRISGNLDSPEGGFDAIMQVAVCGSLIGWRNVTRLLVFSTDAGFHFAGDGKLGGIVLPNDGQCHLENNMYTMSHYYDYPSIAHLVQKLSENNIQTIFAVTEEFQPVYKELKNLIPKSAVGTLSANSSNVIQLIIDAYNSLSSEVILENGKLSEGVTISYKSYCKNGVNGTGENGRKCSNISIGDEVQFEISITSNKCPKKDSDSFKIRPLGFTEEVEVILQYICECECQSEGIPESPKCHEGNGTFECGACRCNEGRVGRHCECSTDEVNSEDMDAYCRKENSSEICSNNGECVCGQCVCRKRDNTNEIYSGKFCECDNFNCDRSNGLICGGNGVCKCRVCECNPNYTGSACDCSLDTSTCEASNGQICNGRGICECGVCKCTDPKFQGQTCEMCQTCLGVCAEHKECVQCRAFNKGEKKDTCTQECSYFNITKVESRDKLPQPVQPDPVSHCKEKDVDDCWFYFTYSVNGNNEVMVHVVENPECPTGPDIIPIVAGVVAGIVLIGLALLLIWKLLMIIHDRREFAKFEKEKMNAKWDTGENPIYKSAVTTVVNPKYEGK

Row | SMILES | inhibition at 100 µM [%] | IC50 [nM]
1 | CSCC[C@@H](CSc1cccc(NC(=O)Nc2ccccc2C)c1)NC(=O)N[C@@H](CC(=O)O)c1ccc2c(c1)OCO2 [(3S)-3-(1,3-benzodioxol-5-yl)-3-{[({(1S)-3-(methylsulfanyl)-1-[({3-[(2-toluidinocarbonyl)amino]phenyl}sulfanyl)methyl]propyl}amino)carbonyl]amino}propanoic acid] | 100 | 2
2 | CSCC[C@@H](CSc1ccc(NC(=O)Nc2ccccc2C)cc1)NC(=O)N[C@@H](CC(=O)O)c1ccc2c(c1)OCO2 [(3S)-3-(1,3-benzodioxol-5-yl)-3-{[({(1S)-3-(methylsulfanyl)-1-[({4-[(2-toluidinocarbonyl)amino]phenyl}sulfanyl)methyl]propyl}amino)carbonyl]amino}propanoic acid] | 100 | 0.9
3 | CSCC[C@@H](CSc1ccc(NS(C)(=O)=O)cc1)NC(=O)N[C@@H](CC(=O)O)c1ccc2c(c1)OCO2 [(3S)-3-(1,3-benzodioxol-5-yl)-3-{[({(1S)-3-(methylsulfanyl)-1-[({4-[(methylsulfonyl)amino]phenyl}sulfanyl)methyl]propyl}amino)carbonyl]amino}propanoic acid] | 100 | 500
4 | CCCS(=O)(=O)Nc1cccc(SC[C@H](CCSC)NC(=O)N[C@@H](CC(=O)O)c2ccc3c(c2)OCO3)c1 [(3S)-3-(1,3-benzodioxol-5-yl)-3-{[({(1S)-3-(methylthio)-1-[({3-[(propylsulfonyl)amino]phenyl}thio)methyl]propyl}amino)carbonyl]amino}propanoic acid] | 100 | 500
5 | O=C(O)C[C@H](NC(=O)N[C@@H](CCSc1ccccc1)CSc1ccccc1)c1ccc2c(c1)OCO2 [(3S)-3-(1,3-benzodioxol-5-yl)-3-{[({(1S)-3-(phenylthio)-1-[(phenylthio)methyl]propyl}amino)carbonyl]amino}propanoic acid] | 100 | 300
6 | CC(C)C[C@@H](CSc1ccccc1)NC(=O)N[C@@H](CC(=O)O)c1ccc2c(c1)OCO2 [(3S)-3-(1,3-benzodioxol-5-yl)-3-{[({(1S)-3-methyl-1-[(phenylsulfanyl)methyl]butyl}amino)carbonyl]amino}propanoic acid] | 100 | 2000
7 | O=C(O)C[C@H](NC(=O)N[C@@H](CCCO)CSc1ccccc1)c1ccc2c(c1)OCO2 [(3S)-3-(1,3-benzodioxol-5-yl)-3-{[({(1S)-4-hydroxy-1-[(phenylthio)methyl]butyl}amino)carbonyl]amino}propanoic acid] | 100 | 2000
8 | CC(C)C(NC(=O)N[C@@H](CC(=O)O)c1ccc2c(c1)OCO2)C(Sc1ccccc1)Sc1ccccc1 (stereo partly drawn) [(3S)-3-[({[1-{[bis-(phenylsulfanyl)]methyl}-2-methylpropyl]amino}carbonyl)amino]-3-[(3,4-methylenedioxy)phenyl]propanoic acid] | 95 | 35000

More lines, now with the values ahead:

Row | inhibition at 100 µM [%] | IC50 [nM] | SMILES
9 | 100 | 3000 | CSCC[C@@H](CSc1ccc(NC(C)=O)cc1)NC(=O)N[C@@H](CC(=O)O)c1ccc2c(c1)OCO2 [(3S)-3-[({[(1S)-1-({[4-(acetylamino)phenyl]sulfanyl}methyl)-3-(methylsulfanyl)propyl]amino}carbonyl)amino]-3-(1,3-benzodioxol-5-yl)propanoic acid]
10 | 100 | 300 | CSCC[C@@H](CSc1ccccc1N)NC(=O)N[C@@H](CC(=O)O)c1ccc2c(c1)OCO2 [(3S)-3-[({[(1S)-1-{[(2-aminophenyl)sulfanyl]methyl}-3-(methylsulfanyl)propyl]amino}carbonyl)amino]-3-(1,3-benzodioxol-5-yl)propanoic acid]
11 | 100 | 300 | CSCC[C@@H](CSc1cccc(N)c1)NC(=O)N[C@@H](CC(=O)O)c1ccc2c(c1)OCO2 [(3S)-3-[({[(1S)-1-{[(3-aminophenyl)thio]methyl}-3-(methylthio)propyl]amino}carbonyl)amino]-3-(1,3-benzodioxol-5-yl)propanoic acid]
